In patent US20060093596A1, “Genomic approach to identification of novel broad-spectrum antimicrobial peptides from bony fish” (priority 2002, published 2006):
Where no end group is shown, it is not given here.

Legend:
[1] = tested on: Escherichia coli DC2 (C500, outer membrane-permeable mutant); format: cell-based; conditions: lowest peptide concentration inhibiting growth by at least 50%; Mueller-Hinton broth
Method: (§1) Most non-fish bacterial strains as well as Candida albicans were grown at 37° C. in Mueller-Hinton Broth (MHB; Difco Laboratories, Detroit), while the fish bacteria were maintained at 16° C. in Tryptic Soy Broth (TSB; Difco, 5g/l NaCl). All strains were stored at −70° C. until they were thawed for use and sub-cultured daily. The following strains, Pseudomonas aeruginosa K799 (parent of Z61), Pseudomonas aeruginosa Z61 (antibiotic supersusceptible), Salmonella typhimurium 14028s (parent of MS7953s), Salmonella typhimurium MS7953s (defensin supersusceptible), as well as Staphylococcus epidermidis (human clinical isolates) and methicillin-resistant Staphylococcus aureus (MRSA; isolated by Dr. A. Chow, University of British Columbia) have been kindly donated by Prof R. E. W. Hancock, University of British Columbia.
(§2) The activities of the antimicrobial peptides were determined as minimal inhibitory concentrations (MICs) using the microtitre broth dilution method of Amsterdam (Amsterdam, 1996), as modified by Wu and Hancock (1999). Serial dilutions of the peptide were made in water in 96-well polypropylene (Costar, Coming Incorporated, Coming, New York) microtiter plates. Bacteria or C. albicans were grown overnight to mid-logarithmic phase as described above, and diluted to give a final inoculum size of 10^6 cfu/ml. A suspension of bacteria or yeast was added to each well of a 96 well plate and incubated overnight at the appropriate temperature. […] Three repeats of each MIC determination were performed.

[2] = tested on: Candida albicans C627, CALB105; conditions: C627, CALB105
Method: as §1, §2

[3] = tested on: Salmonella enterica s. Typhimurium MS4252S (C610, supersusceptible strain); format: cell-based; conditions: lowest peptide concentration inhibiting growth by at least 50%; Mueller-Hinton broth
Method: as §1, §2

[4] = tested on: Aeromonas salmonicida 97-4
Method: (§3) Most non-fish bacterial strains as well as Candida albicans were grown at 37° C. in Mueller-Hinton Broth (MHB; Difco Laboratories, Detroit), while the fish bacteria were maintained at 16° C. in Tryptic Soy Broth (TSB; Difco, 5g/l NaCl).
(§4) Two field isolates of the salmonid pathogen Aeromonas salmonicida are from the IMB strain collection.
as §2

[5] = tested on: Escherichia coli C786, CGSC4908; format: cell-based; conditions: lowest peptide concentration inhibiting growth by at least 50%; supplemented Mueller-Hinton broth
Method: All strains were stored at −70° C. until they were thawed for use and sub-cultured daily.
Escherichia coli strain CGSC 4908 (his-67, thyA43, pyr-37), auxotrophic for thymidine, uridine, and L-histidine (Cohen et al., 1963) was kindly supplied, free of charge, by the E.coli Genetic Stock Centre (Yale University, New Haven, Conn.). MHB supplemented with 5 mg/L thymidine, 10 mg/L uridine and 20 mg/L L-histidine (Sigma Chemical Co., St. Louis, Mo.), was used to grow E.coli CGSC 4908 unless otherwise specified.
The activities of the antimicrobial peptides were determined as minimal inhibitory concentrations (MICs) using the microtitre broth dilution method of Amsterdam (Amsterdam, 1996), as modified by Wu and Hancock (1999). Serial dilutions of the peptide were made in water in 96-well polypropylene (Costar, Coming Incorporated, Coming, New York) microtiter plates. Bacteria or C. albicans were grown overnight to mid-logarithmic phase as described above, and diluted to give a final inoculum size of 10^6 cfu/ml. A suspension of bacteria or yeast was added to each well of a 96 well plate and incubated overnight at the appropriate temperature. In the case of E. coli CGSC 4908, supplemented MHB was used. […] Three repeats of each MIC determination were performed.

[6] = tested on: Pseudomonas aeruginosa K799 (H187); format: cell-based; conditions: lowest peptide concentration inhibiting growth by at least 50%; Mueller-Hinton broth
Method: as §1, §2

[7] = tested on: methicillin-resistant Staphylococcus aureus (MRSA) C623, SAP017; conditions: methicillin-resistant C623, SAP017
Method: as §1, §2

[8] = tested on: Staphylococcus epidermidis C621 (clinical isolate)
Method: as §1, §2

[9] = tested on: Escherichia coli UB1005 (C498); format: cell-based; conditions: lowest peptide concentration inhibiting growth by at least 50%; Mueller-Hinton broth
Method: as §1, §2

[10] = tested on: Salmonella enterica s. Typhimurium 14028S (C587); format: cell-based; conditions: lowest peptide concentration inhibiting growth by at least 50%; Mueller-Hinton broth
Method: as §1, §2

[11] = tested on: Aeromonas salmonicida 99-1, A449
Method: as §3, §4, §2

[12] = tested on: Pseudomonas aeruginosa Z61 (H188, supersusceptible strain); format: cell-based; conditions: lowest peptide concentration inhibiting growth by at least 50%; Mueller-Hinton broth
Method: as §1, §2

[13] = tested on: bacterial pathogens and C. albicans; test: Spectrum of antimicrobial activity (MIC panel, overall); format: cell-based; conditions: summary of MIC results against bacteria and C. albicans
Method: Three repeats of each MIC determination were performed.
The minimal inhibitory concentrations of the chemically produced peptides against a wide range of baterial pathogens and C. albicans were determined and are shown in Table 9.

| Substance | Minimal inhibitory concentration, E. coli DC2 [1] [µg/mL] | Minimal inhibitory concentration, C. alb C627 [2] [µg/mL] | Minimal inhibitory concentration, S. typh MS4252s [3] [µg/mL] | Minimal inhibitory concentration, A. sal 97-4 [4] [µg/mL] | Minimal inhibitory concentration, E. coli C786 [5] [µg/mL] | Minimal inhibitory concentration, P. aeru K799 [6] [µg/mL] | Minimal inhibitory concentration, MRSA C623 [7] [µg/mL] | Minimal inhibitory concentration, S. epi C621 [8] [µg/mL] | Minimal inhibitory concentration, E. coli UB1005 [9] [µg/mL] | Minimal inhibitory concentration, S. typh 14028s [10] [µg/mL] | Minimal inhibitory concentration, A. sal 99-1 [11] [µg/mL] | Minimal inhibitory concentration, P. aeru Z61 [12] [µg/mL] | antimicrobial activity, overall (in words) [13] |
| --- | --- | --- | --- | --- | --- | --- | --- | --- | --- | --- | --- | --- | --- |
| AGWGSIFKHIFKAGKFIHGAIQAHND-NH2 [NRC-14] | 16 | >64 | 16 | 16 | 16 | 32 | 16 | 16 | 16 | >64 | 32 | 8 |  |
| FFRLLFHGVHHGGGYLNAA-NH2 [NRC-9] | >64 | >64 | 64 | >64 | 64 | >64 | >64 | >64 | >64 | >64 | >64 | 64 | poor or no observed activities |
| FFRLLFHGVHHVGKIKPRA-NH2 [NRC-10] | 32 | >64 | 16 | 32 | 32 | 32 | 64 | 32 | 32 | >64 | >64 | 8 | poor or no observed activities |
| FLGALIKGAIHGGRFIHGMIQNHH-NH2 [NRC-5] | >64 | >64 | 64 | >64 | 64 | >64 | 32 | 32 | 64 | >64 | >64 | 32 |  |
| FLGLLFHGVHHVGKWIHGLIHGHH-NH2 [NRC-19] | 32 | 64 | 16 | >64 | 32 | 32 | 8 | 8 | 16 | 64 | 64 | 8 |  |
| GFLGILFHGVHHGRKKALHMNSERRS [NRC-20] |  | >64 |  | >64 |  |  | >64 | >64 |  |  | >64 |  |  |
| GRRKRKWLRRIGKGVKIIGGAALDHL-NH2 [NRC-3] | 2 | 4 | 2 | 4 | 2 | 2 | 8 | 8 | 8 | 8 | 2 | 1 |  |
| GWGSFFKKAAHVGKHVGKAALTHYL-NH2 [NRC-4] | 2 | 8 | 2 | 2 | 2 | 8 | 8 | 8 | 4 | 16 | 2 | 4 |  |
| GWGSIFKHGRHAAKHIGHAAVNHYL-NH2 [NRC-6] | 2 | 32 | 4 | 4 | 4 | 16 | 32 | >64 | 4 | 64 | 4 | 4 |  |
| GWKKWFTKGERLSQRHFA [NRC-18] |  | >64 |  | 128 |  |  | >64 | >64 |  |  | >64 |  |  |
| GWKKWLRKGAKHLGQAAIK-NH2 [NRC-16] | 0.5 | 8 | 0.5 | 1 | 1 | 4 | 32 | 16 | 2 | 16 | 2 | 1 | broad spectrum of antimicrobial activity |
| GWKKWLRKGAKHLGQAAIKGLAS [NRC-17] |  | 8 |  | 1 |  |  | 16 | 32 |  |  | 2 |  | broad spectrum of antimicrobial activity |
| GWKSVFRKAKKVGKTVGGLALDHYL-NH2 [NRC-11] | 4 | 32 | 4 | 8 | 4 | 32 | >64 | 64 | 16 | 32 | 8 | 4 | broad spectrum of antimicrobial activity |
| RSTEDIIKSISGGGFLNAMNA-NH2 [NRC-8] | >64 | >64 | >64 | >64 | >64 | >64 | >64 | >64 | >64 | >64 | >64 | >64 | poor or no observed activities |
